Active and inactive are the calls of the source. No cut-off for these calls is given here. Residues, ends and D or L forms follow the SMILES beside them.
Legend:
[1] = molecular target: T1, Prostaglandin G/H synthase 1 (Ovis aries, UniProt P05979); assay: Inhibition of ovine COX1 by fluorescence assay
T1 sequence (P05979 whole entry): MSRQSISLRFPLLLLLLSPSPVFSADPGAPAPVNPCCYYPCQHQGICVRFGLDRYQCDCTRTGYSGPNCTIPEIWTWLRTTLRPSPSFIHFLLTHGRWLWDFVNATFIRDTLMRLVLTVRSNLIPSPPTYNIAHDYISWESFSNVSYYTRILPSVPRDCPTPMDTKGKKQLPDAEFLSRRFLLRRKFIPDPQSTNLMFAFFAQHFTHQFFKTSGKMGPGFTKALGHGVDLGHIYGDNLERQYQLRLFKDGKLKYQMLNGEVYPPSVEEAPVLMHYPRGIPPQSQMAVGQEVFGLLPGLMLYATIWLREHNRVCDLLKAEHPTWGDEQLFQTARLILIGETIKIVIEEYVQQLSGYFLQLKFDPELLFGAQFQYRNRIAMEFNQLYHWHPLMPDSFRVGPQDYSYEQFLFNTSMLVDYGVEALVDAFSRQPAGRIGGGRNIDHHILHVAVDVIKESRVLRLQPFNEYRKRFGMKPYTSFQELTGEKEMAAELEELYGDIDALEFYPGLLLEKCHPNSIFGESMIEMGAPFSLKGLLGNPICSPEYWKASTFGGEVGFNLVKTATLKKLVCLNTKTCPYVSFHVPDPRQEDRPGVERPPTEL

[2] = molecular target: T2, Prostaglandin G/H synthase 2 (Homo sapiens, UniProt P35354); assay: Inhibition of human recombinant COX2 by fluorescence assay
T2 sequence (P35354 whole entry): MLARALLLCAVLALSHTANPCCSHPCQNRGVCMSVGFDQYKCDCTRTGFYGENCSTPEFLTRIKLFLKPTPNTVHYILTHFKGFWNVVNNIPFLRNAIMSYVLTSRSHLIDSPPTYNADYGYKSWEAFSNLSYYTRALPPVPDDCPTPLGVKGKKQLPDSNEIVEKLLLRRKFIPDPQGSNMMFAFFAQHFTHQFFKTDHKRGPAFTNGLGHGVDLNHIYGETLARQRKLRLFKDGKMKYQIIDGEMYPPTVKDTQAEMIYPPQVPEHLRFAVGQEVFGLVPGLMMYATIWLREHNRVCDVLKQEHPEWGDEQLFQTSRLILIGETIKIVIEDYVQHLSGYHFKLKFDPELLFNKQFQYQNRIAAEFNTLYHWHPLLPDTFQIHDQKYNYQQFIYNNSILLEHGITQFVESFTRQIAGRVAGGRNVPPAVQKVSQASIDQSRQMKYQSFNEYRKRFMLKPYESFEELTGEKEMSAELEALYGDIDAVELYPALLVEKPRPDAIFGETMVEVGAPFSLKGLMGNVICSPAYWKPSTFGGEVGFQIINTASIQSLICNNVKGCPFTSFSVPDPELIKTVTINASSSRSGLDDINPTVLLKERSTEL

[3] = molecular target: T2, Prostaglandin G/H synthase 2; assay: Binding affinity to COX2 by surface plasmon resonance spectroscopy
[4] = molecular target: T2, Prostaglandin G/H synthase 2; assay: Inhibition of COX2 by ELISA
[5] = molecular target: T3, Prostaglandin G/H synthase 1 (Ovis aries) (UniProt P05979); assay: Inhibition of ovine COX1 at 1 nM to 1 mM by fluorescence assay
T3 sequence (whole entry): T1 sequence (P05979 whole entry)

[6] = molecular target: T4, Prostaglandin G/H synthase 2 (Homo sapiens) (UniProt P35354); assay: Inhibition of human recombinant COX2 at 1 nM to 1 mM by fluorescence assay
T4 sequence (whole entry): T2 sequence (P35354 whole entry)

| IC50 [1] | IC50 [2] | Kd [3] | IC50 [4] | inhibition [5] | inhibition [6] | SMILES |
| --- | --- | --- | --- | --- | --- | --- |
| 140 µM | 85 µM | – | – | – | – | O=C(N[C@@H](Cc1c[nH]c2ccccc12)C(=O)N[C@@H](CS)C(=O)N[C@@H](CO)C(=O)O)c1ccc(F)cc1 |
| – | 180 µM | – | – | inactive | – | O=C(N[C@@H](Cc1ccc(O)cc1)C(=O)N[C@@H](Cc1c[nH]c2ccccc12)C(=O)N[C@@H](CO)C(=O)O)c1ccc(F)cc1 |
| – | 200 µM | – | – | inactive | – | O=C(N[C@@H](Cc1c[nH]c2ccccc12)C(=O)N[C@@H](CO)C(=O)O)c1ccc(F)cc1 |
| – | 450 µM | – | – | inactive | – | CSCC[C@H](NC(=O)[C@H](Cc1c[nH]c2ccccc12)NC(=O)c1ccc(F)cc1)C(=O)N[C@@H](CC(=O)O)C(=O)O |
| – | – | – | – | inactive | inactive | O=C(O)C[C@H](NC(=O)[C@H](Cc1ccc(O)cc1)NC(=O)[C@H](Cc1c[nH]c2ccccc12)NC(=O)c1ccc(F)cc1)C(=O)O |
| – | 450 µM | – | – | inactive | – | CSCC[C@H](NC(=O)[C@H](Cc1ccccc1)NC(=O)c1ccc(F)cc1)C(=O)N[C@@H](CC(=O)O)C(=O)O |
| – | > 1000 µM | – | – | inactive | – | CSCC[C@H](NC(=O)[C@H](Cc1ccccc1)NC(=O)c1ccc(F)cc1)C(=O)N[C@@H](CCC(=O)O)C(=O)O |
| – | 350 µM | – | – | inactive | – | CSCC[C@H](NC(=O)[C@H](Cc1c[nH]c2ccccc12)NC(=O)c1ccc(F)cc1)C(=O)N[C@@H](CCC(=O)O)C(=O)O |
| – | > 1000 µM | – | – | inactive | – | CSCC[C@H](NC(=O)[C@H](Cc1ccc(O)cc1)NC(=O)c1ccc(F)cc1)C(=O)N[C@@H](CC(=O)O)C(=O)O |

The next lines start with the molecule.

| SMILES | IC50 [1] | IC50 [2] | Kd [3] | IC50 [4] | inhibition [5] | inhibition [6] |
| --- | --- | --- | --- | --- | --- | --- |
| O=C(O)C[C@H](NC(=O)[C@H](CS)NC(=O)c1ccc(F)cc1)C(=O)O | 15 µM | 14 µM | – | – | – | – |
| N[C@@H](Cc1c[nH]c2ccccc12)C(=O)N[C@@H](CS)C(=O)N[C@@H](CO)C(=O)O (H-Trp-Cys-Ser-OH) | 6 µM | 21 µM | 0.00019 µM | 0.015 µM | – | – |
| O=C(O)C[C@H](NC(=O)[C@H](Cc1ccc(O)cc1)NC(=O)c1ccc(F)cc1)C(=O)O | – | 110 µM | – | – | inactive | – |
| O=C(N[C@@H](Cc1ccccc1)C(=O)N[C@@H](CS)C(=O)N[C@@H](CO)C(=O)O)c1ccc(F)cc1 | 27 µM | 13 µM | – | – | – | – |
| N[C@@H](Cc1c[nH]c2ccccc12)C(=O)N[C@@H](Cc1ccc(O)cc1)C(=O)N[C@@H](CC(=O)O)C(=O)O (H-Trp-Tyr-Asp-OH) | – | 700 µM | – | – | inactive | – |
| O=C(N[C@@H](Cc1ccc(O)cc1)C(=O)N[C@@H](CO)C(=O)O)c1ccc(F)cc1 | – | 140 µM | – | – | inactive | – |
| O=C(N[C@@H](CS)C(=O)N[C@@H](CO)C(=O)O)c1ccc(F)cc1 | 5 µM | 15 µM | – | – | – | – |
| CSCC[C@H](NC(=O)[C@H](Cc1ccc(O)cc1)NC(=O)c1ccc(F)cc1)C(=O)N[C@@H](CCC(=O)O)C(=O)O | – | 500 µM | – | – | inactive | – |
